Legend:
[1] = biological target: PDE 1 (Ca-calmodulin activatable PDE); assay: Phosphodiesterase inhibiting activity, PDE 1; format: biochemical; conditions: isozyme from dog heart; 1 μM [3H]-cAMP or [3H]-cGMP; read-out: Inhibition of PDE Activity: IC50 PDE 1
Method: (§1) Pharmacological Test Example 1: Phosphodiesterase Inhibiting Activity
(§2) Cyclic nucleotide phosphodiesterases from human platelets and from the heart and kidney of a dog were eluted by the concentration gradient method with 70 to 1000 mM of sodium acetate on DEAE-cellulose column chromatography (Whatman Co. Ltd., DE-52, φ3.2×13 cm) according to the method of Thompson and others (Thompson W. J., et al., Advances in Cyclic Nucleotide Research: 10, 69-92, 1979), and separated into isozymes. PDE 5 (cGMP specific PDE) and PDE 3 (cGMP inhibitable cAMP PDE) were separated from the platelets, PDE 1 (Ca-calmodulin activatable PDE) from the heart, and PDE 4 (cGMP non-inhibitable cAMP PDE) from the kidney. The method of Thompson, et al was partially modified to measure phosphodiesterase activities: 1 μM of [3H]-cAMP or [3H]-cGMP was decomposed with phosphodiesterase. The produced 5′-AMP or 5′-GMP was decomposed to adenosine or guanosine with a snake venom (Sigma V7000). The reaction solution was added to anion exchange resin (Bio-Rad Co. Ltd., AG1-X8). Non-adsorbed adenosine or guanosine was counted by a liquid scintillation counter. A concentration causing 50% inhibition of the enzyme activity (IC50) was calculated from concentration inhibition curves.

[2] = biological target: PDE 4 (cGMP non-inhibitable cAMP PDE); assay: Phosphodiesterase inhibiting activity, PDE 4; format: biochemical; conditions: isozyme from dog kidney; 1 μM [3H]-cAMP or [3H]-cGMP; read-out: Inhibition of PDE Activity: IC50 PDE 4
Method: as §1, §2

[3] = biological target: T1, PDE 5 (cGMP specific PDE) (Homo sapiens, UniProt O76074); assay: Phosphodiesterase inhibiting activity, PDE 5; format: biochemical; conditions: isozyme from human platelets; 1 μM [3H]-cAMP or [3H]-cGMP; read-out: Inhibition of PDE Activity: IC50 PDE 5
T1 construct: from tissue; host or cells: human platelets
Method: as §1, §2

PDE 2 = biological target: T2, PDE 2 (Homo sapiens, UniProt O00408); assay: Phosphodiesterase inhibiting activity, PDE 2; format: biochemical; conditions: 1 μM [3H]-cAMP or [3H]-cGMP; source of isozyme not given; read-out: Inhibition of PDE Activity: IC50 PDE 2
T2 construct: eluted by the concentration gradient method with 70 to 1000 mM of sodium acetate on DEAE-cellulose column chromatography; from tissue
T2 sequence (O00408 whole entry): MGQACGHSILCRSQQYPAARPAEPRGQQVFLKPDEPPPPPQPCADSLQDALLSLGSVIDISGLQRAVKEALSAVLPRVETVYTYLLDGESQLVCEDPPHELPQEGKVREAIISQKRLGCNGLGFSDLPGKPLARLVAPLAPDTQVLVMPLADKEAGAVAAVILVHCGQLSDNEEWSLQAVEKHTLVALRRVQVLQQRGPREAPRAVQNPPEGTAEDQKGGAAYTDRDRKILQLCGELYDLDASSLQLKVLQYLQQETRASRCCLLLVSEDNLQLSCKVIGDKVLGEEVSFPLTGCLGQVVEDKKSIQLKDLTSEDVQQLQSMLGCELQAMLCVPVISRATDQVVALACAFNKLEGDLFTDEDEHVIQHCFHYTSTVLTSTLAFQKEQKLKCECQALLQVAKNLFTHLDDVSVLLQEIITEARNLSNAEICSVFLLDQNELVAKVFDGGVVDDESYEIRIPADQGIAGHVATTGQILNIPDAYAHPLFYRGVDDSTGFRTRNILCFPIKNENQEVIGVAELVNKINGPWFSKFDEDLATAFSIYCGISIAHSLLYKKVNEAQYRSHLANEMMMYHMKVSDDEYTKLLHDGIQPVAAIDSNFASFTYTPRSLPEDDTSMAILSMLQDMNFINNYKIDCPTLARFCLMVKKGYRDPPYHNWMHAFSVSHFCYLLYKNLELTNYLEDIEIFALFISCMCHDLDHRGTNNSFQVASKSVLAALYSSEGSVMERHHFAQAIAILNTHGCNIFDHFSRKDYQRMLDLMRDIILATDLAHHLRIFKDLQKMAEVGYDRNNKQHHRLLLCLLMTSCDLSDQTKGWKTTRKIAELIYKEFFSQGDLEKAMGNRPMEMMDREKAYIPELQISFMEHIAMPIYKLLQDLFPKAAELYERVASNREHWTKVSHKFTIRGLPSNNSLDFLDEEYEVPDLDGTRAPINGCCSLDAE
Method: [Worded in the source for another target; this target is reported under the same test.] as §1, §2

[4] = biological target: T3, PDE 3 (cGMP inhibitable cAMP PDE) (Homo sapiens, UniProt Q14432); assay: Phosphodiesterase inhibiting activity, PDE 3; format: biochemical; conditions: isozyme from human platelets; 1 μM [3H]-cAMP or [3H]-cGMP; read-out: Inhibition of PDE Activity: IC50 PDE 3
T3 construct: from tissue; host or cells: human platelets
T3 sequence (Q14432 whole entry): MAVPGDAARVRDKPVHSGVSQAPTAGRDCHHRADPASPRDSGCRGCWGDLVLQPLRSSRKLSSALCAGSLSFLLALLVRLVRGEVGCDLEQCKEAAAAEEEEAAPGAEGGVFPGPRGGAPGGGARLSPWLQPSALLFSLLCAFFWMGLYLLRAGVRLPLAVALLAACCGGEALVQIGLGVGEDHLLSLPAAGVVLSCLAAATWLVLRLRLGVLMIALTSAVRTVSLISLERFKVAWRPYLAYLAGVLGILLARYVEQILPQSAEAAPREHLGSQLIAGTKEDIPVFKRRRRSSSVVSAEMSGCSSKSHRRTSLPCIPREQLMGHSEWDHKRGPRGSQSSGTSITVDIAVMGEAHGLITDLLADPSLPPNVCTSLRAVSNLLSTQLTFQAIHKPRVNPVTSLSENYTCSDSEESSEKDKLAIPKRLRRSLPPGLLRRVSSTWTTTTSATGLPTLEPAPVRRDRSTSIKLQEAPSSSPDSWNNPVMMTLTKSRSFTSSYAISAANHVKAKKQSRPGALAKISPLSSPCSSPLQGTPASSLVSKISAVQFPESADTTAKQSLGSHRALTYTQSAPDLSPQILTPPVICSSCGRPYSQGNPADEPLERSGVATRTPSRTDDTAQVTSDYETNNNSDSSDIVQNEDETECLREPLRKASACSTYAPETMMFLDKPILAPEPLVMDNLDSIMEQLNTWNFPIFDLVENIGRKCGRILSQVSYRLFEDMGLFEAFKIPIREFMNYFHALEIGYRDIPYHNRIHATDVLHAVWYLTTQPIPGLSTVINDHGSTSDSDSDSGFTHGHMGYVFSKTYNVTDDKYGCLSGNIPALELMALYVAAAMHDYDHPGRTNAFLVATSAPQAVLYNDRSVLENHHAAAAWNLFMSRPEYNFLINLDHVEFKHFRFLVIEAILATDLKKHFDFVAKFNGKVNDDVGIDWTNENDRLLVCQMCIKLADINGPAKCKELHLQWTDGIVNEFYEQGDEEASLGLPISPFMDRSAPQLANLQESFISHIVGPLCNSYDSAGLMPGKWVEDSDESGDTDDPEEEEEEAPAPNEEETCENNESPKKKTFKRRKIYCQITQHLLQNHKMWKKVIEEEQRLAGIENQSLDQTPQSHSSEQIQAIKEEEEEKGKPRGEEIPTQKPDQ
Method: as §1, §2

thoracic aortas = assay: Vasodilating activity, phenylephrine-contracted thoracic aorta ring preparations (Magnus method); set-up: species or system Sprague-Dawley male rats; conditions: rat thoracic aorta ring preparations contracted with 1 μM phenylephrine, 37° C., drug added cumulatively
Method: Pharmacological Test Example 2: Vasodilating Activity
A vasodilating activity was assessed according to the method of Ken-ichi Hirata and Mitsuhiro Yokoyama (Arteriosclerosis and Hyperlipemia Research Strategies, published by Shujunsha (Japan), pages 275-277, 1996): The thoracic aortas were extracted from Sprague-Dawley male rats (weighing 180 to 360 g). After unnecessary connective tissues were removed, the aortas were cut to 5mm-long pieces to make ring strip preparations, and assessed by the Magnus method (37° C.). A nutrient solution used was a Krebs-Henseleit solution aerated with 5% carbon dioxide gas and 95% oxygen gas. Specimens were equilibrated for about 60 minutes, and then contracted by adding 1 μM of phenylephrine. 1 μM of acetylcholine was added at the second phenylepherine-induced contraction in order to confirm an endothelial cell dependent relaxation response. At the third phenylepherine-induced contraction, a drug to test was added cumulatively, and the relaxation action was observed. Drugs to test were all dissolved in DMSO to use for the tests. The tested drugs were assessed by 50% relaxation rates (EC50) obtained from vasodilation rates to respective concentrations (the maximum relaxation was measured by adding 100 μM of papaverine).

Row | Structure (SMILES) | melting point | IC50 [1] | IC50 [2] | IC50 [3] | IC50 (PDE 2) | IC50 [4] | EC50 (thoracic aortas)
1 | CCOC(=O)N1CCc2c(sc3nc(-c4ccncc4)nc(NCc4ccc(OC)c(Cl)c4)c23)C1 [1-5] | 218 to 220 °C | > 10 µM | 2.5 µM | 0.00054 µM | > 10 µM | > 10 µM | 0.0081 µM
2 | COc1ccc(CNc2nc(-c3ccco3)nc3sc4c(c23)CCN(C)C4)cc1Cl [1-6] | 90 to 92 °C | 5.5 µM | 3.6 µM | 0.05 µM | > 10 µM | > 10 µM | 0.016 µM
3 | COc1ccc(CNc2nc(-c3ccncc3)nc3sc4c(c23)CCN(C)C4)cc1Cl [1-7] | 118 to 120 °C | > 10 µM | 3.7 µM | 0.0024 µM | 2 µM | 5.4 µM | 0.0095 µM
4 | COc1ccc(CNc2nc(-c3cccnc3)nc3sc4c(c23)CCN(C(C)=O)C4)cc1Cl [1-9, 5,6,7,8-tetrahydro-4-[(3-chloro-4-methoxy)benzylamino]-7-acetyl-2-(3-pyridyl)pyrido[4′,3′:4,5]thieno[2,3-d]pyrimidine] | 226 to 227 °C | – | – | – | – | – | 0.0063 µM
5 | COC(=O)CNC(=O)c1nc(NCc2ccc(OC)c(Cl)c2)c2c3c(sc2n1)CN(C(C)C)CC3 [1-54] | 155 to 157 °C | > 10 µM | > 10 µM | 0.033 µM | > 10 µM | ≥ 10 µM | 0.019 µM
6 | COC(=O)c1nc(NCc2ccc(OC)c(Cl)c2)c2c3c(sc2n1)CN(Cc1ccccc1)CC3 [1-65] | 168 to 170 °C | > 10 µM | > 10 µM | 0.091 µM | > 10 µM | > 10 µM | 0.26 µM
7 | COc1ccc(CNc2nc(C(=O)Nc3ccccc3)nc3sc4c(c23)CCN(C)C4)cc1Cl [1-72] | – | > 10 µM | > 10 µM | 0.0018 µM | > 10 µM | > 10 µM | 0.0074 µM
8 | COc1ccc(CNc2nc(C(=O)Nc3ccccc3)nc3sc4c(c23)CCN(C(C)C)C4)cc1Cl [1-75] | – | > 10 µM | 8.4 µM | 0.0014 µM | > 10 µM | > 10 µM | 0.0093 µM
9 | COc1ccc(CNc2nc(C(=O)NC3CC3)nc3sc4c(c23)CCN(C(C)C)C4)cc1Cl [1-76] | 112 to 114 °C | > 10 µM | > 10 µM | 0.056 µM | > 10 µM | > 10 µM | 0.026 µM
10 | COc1ccc(CNc2nc(C(=O)NCc3ccccc3)nc3sc4c(c23)CCN(C)C4)cc1Cl [1-79] | – | 0.67 µM | 5.1 µM | 0.016 µM | > 10 µM | > 10 µM | 0.018 µM
11 | COC(=O)c1ccc(NC(=O)c2nc(NCc3ccc(OC)c(Cl)c3)c3c4c(sc3n2)CN(C)CC4)cc1 [1-80] | – | > 10 µM | 4.1 µM | 0.053 µM | 3.3 µM | > 10 µM | 0.025 µM
12 | COc1ccc(CNc2nc(C(=O)Nc3cccnc3)nc3sc4c(c23)CCN(C)C4)cc1Cl [1-81] | 145 to 147 °C | > 10 µM | 6.4 µM | 0.006 µM | > 10 µM | > 10 µM | 0.0031 µM
13 | CCOC(=O)Cc1nc(NCc2ccc(OC)c(Cl)c2)c2c3c(sc2n1)C(=O)N(C(C)C)CC3 [2-10] | – | > 10 µM | 8 µM | 0.039 µM | > 10 µM | 7.4 µM | 0.018 µM
14 | COc1ccc(CNc2nc(C(=O)Nc3ccccc3)nc3sc4c(c23)CCCC4)cc1Cl [3-2] | 210 to 211 °C | > 10 µM | > 10 µM | 0.00039 µM | > 10 µM | > 10 µM | –
